31 molecules from patent US12421249B2, “Inhibitors of APOL1 and methods of using same” (Vertex Pharmaceuticals Incorporated, priority 2020, dated 2025) can be followed below.

Assay [1] concerns the target T1, APOL1 G1 (Homo sapiens, UniProt O14791, I384M/S342G).
T1 sequence (O14791 28-398 S342G/I384M): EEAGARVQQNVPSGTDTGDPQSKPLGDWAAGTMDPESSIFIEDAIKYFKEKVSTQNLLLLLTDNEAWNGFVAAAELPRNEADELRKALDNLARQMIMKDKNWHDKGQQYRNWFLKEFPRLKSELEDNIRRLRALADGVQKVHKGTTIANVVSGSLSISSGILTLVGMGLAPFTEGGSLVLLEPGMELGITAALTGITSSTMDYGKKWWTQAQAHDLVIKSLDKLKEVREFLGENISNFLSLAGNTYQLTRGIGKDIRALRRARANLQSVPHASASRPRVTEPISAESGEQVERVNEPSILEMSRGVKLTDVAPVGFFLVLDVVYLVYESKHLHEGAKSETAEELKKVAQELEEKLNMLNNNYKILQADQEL
The assay can be described thus: Trypanosoma brucei brucei Lysis Assay Using APOL1 Recombinant Protein (AlamarBlue viability readout). Conditions: for IC50: IP50 = IC50 for cell proliferation, read-out: Trypanosome Assay IP50; for Emax: read-out: Trypanosome Assay Max Activity (%). In kind it is cell-based. The procedure, abridged: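 Percent viability comes from AlamarBlue (resazurin→resorufin) fluorescence interpolated on a standard curve of known parasite numbers, with no-APOL1 wells as 100%. Parasites (Lister 427 bloodstream form, 120,000/well, serum-free assay medium) meet 0.05 μg/mL APOL1 (~EC90). Compounds span a 10-point series, 0.1% DMSO final.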
(In general: Alamar Blue is a resazurin reagent that responds to reducing activity.)

Assay [2] has as its target T2, APOL1 (Homo sapiens, UniProt O14791).
T2 sequence (O14791 1-398 S342G/I384M): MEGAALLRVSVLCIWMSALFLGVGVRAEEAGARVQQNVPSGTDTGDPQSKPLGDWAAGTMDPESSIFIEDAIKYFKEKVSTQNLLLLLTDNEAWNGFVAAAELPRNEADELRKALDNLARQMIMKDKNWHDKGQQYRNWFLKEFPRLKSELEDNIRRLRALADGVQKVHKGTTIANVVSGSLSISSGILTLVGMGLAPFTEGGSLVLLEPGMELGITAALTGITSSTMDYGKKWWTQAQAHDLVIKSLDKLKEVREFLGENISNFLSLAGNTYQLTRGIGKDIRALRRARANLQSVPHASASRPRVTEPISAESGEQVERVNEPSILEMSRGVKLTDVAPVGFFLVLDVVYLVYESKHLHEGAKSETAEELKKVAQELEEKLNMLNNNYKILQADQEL
The assay can be described thus: Multi-Tox Assay (MultiTox-Fluor Multiplex Cytotoxicity Assay in tet-inducible APOL1 T-REx-HEK293 cells; Table 46 does not say which APOL1 variant G0/G1/G2). In kind it is cell-based. Conditions: APOL1 variant not given; for IC50: IP50 = IC50 for cell proliferation.

Where two headings read alike, the source gives them in different places.

Broadly, the IC90 is the concentration needed for an effect of 90%. Higher therefore signals weaker potency.

In the case of `C[C@H]1CC2(C[C@@H](c3cn(C)nn3)N1)OCCc1sc(Cl)cc12` (single isomer, unassigned) [Compound 173], in assay [1] (Trypanosome Assay), the IC50 is below 0.05 µM and the Emax was found to be 116%. In assay [2], this molecule displayed an IC50 below 0.05 µM.

In the case of `C[C@H]1CC2(CC(c3cnn(C)c3)N1)OCC(O)c1cc(Cl)sc12` (single isomer, unassigned) [Compound 175], in assay [1] (Trypanosome Assay), the IC50 is below 0.05 µM and the Emax worked out at 106%. Besides, in assay [2], the IC90 was below 0.05 µM, the “Multi-Tox Assay Max Activity (%)” value is 100.0% and the IC50 was below 0.05 µM.

Regarding `C[C@H]1CC2(CC(c3cnn(C)c3)N1)OCC(O)c1cc(Cl)sc12` (single isomer, unassigned) [Compound 176], in assay [1] (Trypanosome Assay), the “Trypanosome Assay Max Activity (%)” value was 115.5% and the IC50 is below 0.05 µM. Also, in assay [2], the IC90 was below 0.05 µM, the “Multi-Tox Assay Max Activity (%)” value came out at 100.0% and the IC50 is below 0.05 µM.

`C[C@H]1C[C@@]2(C[C@@H](c3cn(C)nn3)N1)OCC(O)(C(F)F)c1cc(Cl)sc12` (single isomer, unassigned) [Compound 184]: the IC50 in assay [1] (Trypanosome Assay) was 0.05 to 0.5 µM; in assay [2] it was below 0.05 µM.

For `C[C@H]1C[C@@]2(C[C@@H](c3cn(C)nn3)N1)OCC(O)(C(F)F)c1cc(Cl)sc12` (single isomer, unassigned) [Compound 185], in assay [1] (Trypanosome Assay), the “Trypanosome Assay Max Activity (%)” value is listed as 99.0% and the IC50 was 0.05 to 0.5 µM. Moreover, in assay [2], the IC90 was below 0.05 µM, the “Multi-Tox Assay Max Activity (%)” value is 99.5% and the IC50 is below 0.05 µM.

Turning to `C[C@@H]1CC2(C[C@H](C)N1)OCCc1sc(C(F)(F)F)cc12` (single isomer, unassigned) [Compound 196], the IC50 in assay [1] (Trypanosome Assay) and in assay [2] was 0.05 to 0.5 µM in each case. In addition, the Emax in assay [1] (Trypanosome Assay) came to 111%.

`C[C@@H]1CC2(C[C@H](C)N1)OCCc1cc(Br)sc12` (single isomer, unassigned) [Compound 197]: the IC50 in assay [1] (Trypanosome Assay) and in assay [2] was 0.05 to 0.5 µM each time. Also, the Emax in assay [1] amounted to 106%.

On to `C[C@@H]1CC2(C[C@H](C)N1)OCCc1cc(C3CC(F)(F)C3)sc12` (single isomer, unassigned) [Compound 198], for which the IC50 in assay [1] (Trypanosome Assay) and in assay [2] was 0.05 to 0.5 µM in each case.

As for `CCc1cc2c(s1)C1(C[C@@H](C)N[C@@H](C)C1)OCC2` (single isomer, unassigned) [Compound 199], the IC50 in assay [1] (Trypanosome Assay) was 0.05 to 0.5 µM; in assay [2], below 0.05 µM. Further, the Emax in assay [1] came out at 110%.

Turning to `CC(C)c1cc2c(s1)C1(C[C@@H](C)N[C@@H](C)C1)OCC2` (single isomer, unassigned) [Compound 200], the IC50 in assay [1] (Trypanosome Assay) and in assay [2] was 0.05 to 0.5 µM each time. The Emax in assay [1] is 98.7%.

With `CC(C)Cc1cc2c(s1)C1(C[C@@H](C)N[C@@H](C)C1)OCC2` (single isomer, unassigned) [Compound 201], the IC50 was above 0.5 µM in assay [1] (Trypanosome Assay) and 0.05 to 0.5 µM in assay [2]. The Emax in assay [1] (Trypanosome Assay) worked out at 76.7%.

Regarding `C[C@@H]1CC2(C[C@H](C)N1)OCCc1cc(C3CCCCC3)sc12` (single isomer, unassigned) [Compound 202], in assay [1] (Trypanosome Assay), the IC50 was above 0.5 µM and the Emax was determined as 19%. In assay [2], the IC50 is above 0.5 µM.

Regarding `C[C@@H]1CC2(C[C@H](C)N1)OCCc1cc(CC(F)F)sc12` (single isomer, unassigned) [Compound 203], the IC50 in assay [1] (Trypanosome Assay) and in assay [2] was below 0.05 µM throughout. In assay [1] (Trypanosome Assay), the Emax is 102%.

Turning to `C[C@@H]1CC2(C[C@H](C)N1)OCCc1cc(Cl)sc12` (single isomer, unassigned) [Compound 204], the IC50 in assay [1] (Trypanosome Assay) and in assay [2] was 0.05 to 0.5 µM throughout. Further, in assay [1], the Emax was determined as 112%.

As to `Clc1cc2c(s1)C1(C[C@@H](C3CC3)N[C@@H](C3CC3)C1)OCC2` (single isomer, unassigned) [Compound 206], in assay [1] (Trypanosome Assay), the IC50 fell in the range of 0.05 to 0.5 µM and the Emax is 104%. Further, in assay [2], the IC50 was below 0.05 µM.

With `C[C@@H]1CC2(C[C@H](C)N1)OCCc1cc(C(F)(F)F)sc12` (single isomer, unassigned) [Compound 207], in assay [1] (Trypanosome Assay), the IC50 was below 0.05 µM and the Emax amounted to 108%. In addition, in assay [2], the IC50 is below 0.05 µM.

Regarding `C[C@@H]1CC2(C[C@H](C)N1)OCCc1c2sc(C(F)(F)F)c1CO` (single isomer, unassigned) [Compound 208], the IC50 in assay [1] (Trypanosome Assay) is 0.05 to 0.5 µM; in assay [2] it was below 0.05 µM. Moreover, the Emax in assay [1] (Trypanosome Assay) worked out at 103%.

In the case of `CC1CC2(CC(C3CC3(F)F)N1)OCCc1cc(Cl)sc12` (single isomer, unassigned) [Compound 212], in assay [1] (Trypanosome Assay), the IC50 is below 0.05 µM and the Emax is 101%. In assay [2], the IC50 is below 0.05 µM.

Turning to `CC1CC2(CC(C3CC3(F)F)N1)OCCc1cc(Cl)sc12` (single isomer, unassigned) [Compound 213], in assay [1] (Trypanosome Assay), the “Trypanosome Assay Max Activity (%)” value stood at 98.7% and the IC50 lay within 0.05 to 0.5 µM. For the same molecule, in assay [2], the IC90 is 0.05 to 0.5 µM, the “Multi-Tox Assay Max Activity (%)” value is recorded as 99.5% and the IC50 lay within 0.05 to 0.5 µM.

For the molecule `Cc1cc2c(s1)C1(C[C@@H](c3cn(C)nn3)N[C@@H](C)C1)OCC2` (stereo in doubt) [Compound 3], the IC50 in assay [1] (Trypanosome Assay) and in assay [2] was below 0.05 µM in each case. The Emax in assay [1] (Trypanosome Assay) came to 107%.

Take `CCc1cc2c(s1)CCOC21C[C@@H](c2cn(C)nn2)N[C@@H](C)C1` (stereo in doubt) [Compound 4]: in assay [1] (Trypanosome Assay), the IC50 was below 0.05 µM and the Emax is 118%. For the same molecule, the IC50 in assay [2] was below 0.05 µM.

Regarding `CCc1cc2c(s1)CCO[C@@]21C[C@@H](c2cnn(CCS(C)(=O)=O)c2)N[C@@H](C)C1` (stereo in doubt) [Compound 5], in assay [1] (Trypanosome Assay), the IC50 lay within 0.05 to 0.5 µM and the Emax worked out at 111%. In addition, in assay [2], the “Multi-Tox Assay Max Activity (%)” value is 100.0% and the IC50 is 0.05 to 0.5 µM.

For the molecule `CCc1cc2c(s1)C1(C[C@@H](c3cn(C)nn3)N[C@@H](C)C1)OCC2` (stereo in doubt) [Compound 6], in assay [1] (Trypanosome Assay), the IC50 was below 0.05 µM and the Emax is 102%. In assay [2], this molecule showed an IC50 below 0.05 µM.

As for `CCc1cc2c(s1)C(C)COC21C[C@@H](c2cn(C)nn2)N[C@@H](C)C1` (stereo in doubt) [Compound 10], in assay [1] (Trypanosome Assay), the IC50 was 0.05 to 0.5 µM and the Emax worked out at 101%. For the same molecule, in assay [2], the “Multi-Tox Assay Max Activity (%)” value is 99.7% and the IC50 was below 0.05 µM.

In the case of `CCc1cc2c(s1)C(C)COC21C[C@@H](c2cn(C)nn2)N[C@@H](C)C1` (stereo in doubt) [Compound 11], in assay [1] (Trypanosome Assay), the “Trypanosome Assay Max Activity (%)” value worked out at 101.5% and the IC50 is below 0.05 µM. Also, in assay [2], the IC90 was below 0.05 µM, the “Multi-Tox Assay Max Activity (%)” value came to 99.3% and the IC50 is below 0.05 µM.

For `CC1COC2(C[C@@H](c3cn(C)nn3)N[C@@H](C)C2)c2cc(Cl)sc21` (stereo in doubt) [Compound 12], in assay [1] (Trypanosome Assay), the IC50 is below 0.05 µM and the Emax is 102%. In addition, in assay [2], the “Multi-Tox Assay Max Activity (%)” value worked out at 99.3% and the IC50 was below 0.05 µM.

Take `CC1COC2(C[C@@H](c3cn(C)nn3)N[C@@H](C)C2)c2cc(Cl)sc21` (stereo in doubt) [Compound 13]: in assay [1] (Trypanosome Assay), the “Trypanosome Assay Max Activity (%)” value was found to be 100.0% and the IC50 was below 0.05 µM. In assay [2], the IC90 is below 0.05 µM, the “Multi-Tox Assay Max Activity (%)” value was determined as 99.0% and the IC50 is below 0.05 µM.

Consider `CC1COC2(C[C@@H](c3cn(C)nn3)N[C@@H](C)C2)c2cc(C(F)(F)F)sc21` (stereo in doubt) [Compound 14], for which, in assay [1] (Trypanosome Assay), the IC50 was below 0.05 µM and the Emax turned out to be 102%. Moreover, the IC50 in assay [2] is below 0.05 µM.

For the molecule `C[C@H]1CC2(C[C@@H](c3cn(C)nn3)N1)OCC(C)(C)c1sc(Cl)cc12` (stereo in doubt) [Compound 15], in assay [1] (Trypanosome Assay), the IC50 is below 0.05 µM and the Emax came out at 101%. In assay [2], the “Multi-Tox Assay Max Activity (%)” value is on record as 99.0% and the IC50 was below 0.05 µM.

For the molecule `C[C@H]1CC2(C[C@@H](c3cn(C)nn3)N1)OCC(C)(C)c1sc(C(F)(F)F)cc12` (stereo in doubt) [Compound 16], in assay [1] (Trypanosome Assay), the IC50 is 0.05 to 0.5 µM and the Emax was determined as 99.5%. For the same molecule, in assay [2], the “Multi-Tox Assay Max Activity (%)” value is reported as 100.0% and the IC50 is below 0.05 µM.

As to `C[C@H]1C[C@@]2(C[C@@H](c3ccc(O)c(F)c3)N1)OCCc1cc(Cl)sc12` (stereo in doubt) [Compound 51], in assay [1] (Trypanosome Assay), the IC50 is below 0.05 µM and the Emax is 102%. In addition, in assay [2], the “Multi-Tox Assay Max Activity (%)” value came to 99.7% and the IC50 is below 0.05 µM.
